This passage reports mutagenic call results from PubChem BioAssay AID1259407 (Chemical Carcinogenesis Research Information System (CCRIS), 2018).

Activity calls are given as the source filed them. No rule for the calls is given here.

This data set concerns CCRIS mutagenicity, Ames/micronucleus/aberration tests. The data set is described as follows: CCRIS mutagenicity studies.
Setting [1] is: Test System: AMES SALMONELLA TYPHIMURIUM, Strain/Indicator: TA100, Metabolic Activation: NONE, Method: STANDARD PLATE.
[2] abbreviates: Test System: AMES SALMONELLA TYPHIMURIUM, Strain/Indicator: TA1537, Metabolic Activation: NONE, Method: STANDARD PLATE.
Where [3] appears, read: Test System: AMES SALMONELLA TYPHIMURIUM, Strain/Indicator: TA98, Metabolic Activation: NONE, Method: PREINCUBATION
Setting [4] is: Test System: AMES SALMONELLA TYPHIMURIUM, Strain/Indicator: TA100, Metabolic Activation: NONE, Method: PREINCUBATION

Regarding `CN(C)CCCNc1c2ccccc2nc2c([N+](=O)[O-])cccc12`, the mutagenic call is “active; positive” (Test System: AMES SALMONELLA TYPHIMURIUM, Strain/Indicator: TA98(1,8-DNP6), Metabolic Activation: NONE, Method: STANDARD PLATE); “active; positive” (Test System: AMES SALMONELLA TYPHIMURIUM, Strain/Indicator: TA98(1,8-DNP6), Metabolic Activation: RAT, LIVER, S-9, Method: STANDARD PLATE); “active; positive” (Test System: AMES SALMONELLA TYPHIMURIUM, Strain/Indicator: TA98(NR), Metabolic Activation: NONE, Method: STANDARD PLATE); “active; positive” (Test System: AMES SALMONELLA TYPHIMURIUM, Strain/Indicator: TA98(NR), Metabolic Activation: RAT, LIVER, S-9, Method: STANDARD PLATE); “active; positive” (Test System: AMES SALMONELLA TYPHIMURIUM, Strain/Indicator: TA98, Metabolic Activation: NONE, Method: STANDARD PLATE); “active; positive” (Test System: AMES SALMONELLA TYPHIMURIUM, Strain/Indicator: TA98, Metabolic Activation: RAT, LIVER, S-9, Method: STANDARD PLATE). For the same compound, the mutagenic call is, setting by setting: under setting [1], “active; positive”; (Test System: AMES SALMONELLA TYPHIMURIUM, Strain/Indicator: TA1535, Metabolic Activation: NONE, Method: STANDARD PLATE) “inactive; negative”; under setting [2], “active; positive”; (Test System: AMES SALMONELLA TYPHIMURIUM, Strain/Indicator: TA1537 PKM101, Metabolic Activation: NONE, Method: STANDARD PLATE) “active; positive”; (Test System: AMES SALMONELLA TYPHIMURIUM, Strain/Indicator: TA1538, Metabolic Activation: NONE, Method: STANDARD PLATE) “active; positive”; (Test System: CHINESE HAMSTER V-79, Strain/Indicator: V-79/6-THIOGUANINE, Metabolic Activation: NONE, Method: STANDARD PLATE) “active; positive”. The mutagenic call was “inactive; negative” (Test System: CHINESE HAMSTER V-79, Strain/Indicator: V-79/OUABAIN, Metabolic Activation: NONE, Method: STANDARD PLATE); “active; positive” (Test System: Escherichia coli, Strain/Indicator: CC107 (G6 to G7 frameshifts), Metabolic Activation: None, Method: Modified preincubation); “active; positive” (Test System: Escherichia coli, Strain/Indicator: CC108 (G6 to G5 frameshifts), Metabolic Activation: None, Method: Modified preincubation); “inactive; negative, investigators report as positive based on revertant frequency correcte” (Test System: Escherichia coli, Strain/Indicator: CC109 (CG5 to CG4 frameshifts), Metabolic Activation: None, Method: Modified preincubation); “inactive; negative” (Test System: Escherichia coli, Strain/Indicator: CC111 (A7 to A6 frameshifts), Metabolic Activation: None, Method: Modified preincubation).
With `CC(=O)c1cc(N)ccc1OCC(O)CNC(C)(C)C` (stereo not given), the mutagenic call was “inactive; negative” under setting [3]; “inactive; negative” (Test System: AMES SALMONELLA TYPHIMURIUM, Strain/Indicator: TA98, Metabolic Activation: RAT, LIVER, S-9, PHENOBARBITAL AND 5,6-BENZOFLAVONE (10 OR 50 µL/PLATE), Method: PREINCUBATION); “inactive; negative” under setting [4]; “inactive; negative” (Test System: AMES SALMONELLA TYPHIMURIUM, Strain/Indicator: TA100, Metabolic Activation: RAT, LIVER, S-9, PHENOBARBITAL AND 5,6-BENZOFLAVONE (10 OR 50 µL/PLATE), Method: PREINCUBATION); “inactive; negative” (Test System: AMES SALMONELLA TYPHIMURIUM, Strain/Indicator: TA1535, Metabolic Activation: NONE, Method: PREINCUBATION); “inactive; negative” (Test System: AMES SALMONELLA TYPHIMURIUM, Strain/Indicator: TA1535, Metabolic Activation: RAT, LIVER, S-9, PHENOBARBITAL AND 5,6-BENZOFLAVONE (10 OR 50 µL/PLATE), Method: PREINCUBATION). The mutagenic call runs as follows: (Test System: AMES SALMONELLA TYPHIMURIUM, Strain/Indicator: TA1537, Metabolic Activation: NONE, Method: PREINCUBATION) “inactive; negative”; (Test System: AMES SALMONELLA TYPHIMURIUM, Strain/Indicator: TA1537, Metabolic Activation: RAT, LIVER, S-9, PHENOBARBITAL AND 5,6-BENZOFLAVONE (10 OR 50 µL/PLATE), Method: PREINCUBATION) “inactive; negative”; (Test System: E. COLI, Strain/Indicator: WP2 UVRA, Metabolic Activation: NONE, Method: PREINCUBATION) “inactive; negative”; (Test System: E. COLI, Strain/Indicator: WP2 UVRA, Metabolic Activation: RAT, LIVER, S-9, PHENOBARBITAL AND 5,6-BENZOFLAVONE, Method: PREINCUBATION) “inactive; negative”.
With `OC[C@H](O)CCl`, the mutagenic call reads like this: under setting [3], “inactive; negative”; (Test System: AMES SALMONELLA TYPHIMURIUM, Strain/Indicator: TA98, Metabolic Activation: RAT, LIVER, S-9, KANECHLOR 500, Method: PREINCUBATION) “inactive; negative”; under setting [4], “active; positive”; (Test System: AMES SALMONELLA TYPHIMURIUM, Strain/Indicator: TA100, Metabolic Activation: RAT, LIVER, S-9, KANECHLOR 500, Method: PREINCUBATION) “inactive; negative”; (Test System: AMES SALMONELLA TYPHIMURIUM, Strain/Indicator: TA100, Metabolic Activation: RAT, LIVER, S-9, PCB, Method: PREINCUBATION) “active; positive”.
`Nc1cccc([N+](=O)[O-])c1CO`: the mutagenic call is “inactive; negative” under setting [3]; “inactive; negative” (Test System: AMES SALMONELLA TYPHIMURIUM, Strain/Indicator: TA98, Metabolic Activation: RAT, LIVER, S-9, PHENOBARBITAL AND 5,6-BENZOFLAVONE, Method: PREINCUBATION); “inactive; negative” under setting [4]; “inactive; negative” (Test System: AMES SALMONELLA TYPHIMURIUM, Strain/Indicator: TA100, Metabolic Activation: RAT, LIVER, S-9, PHENOBARBITAL AND 5,6-BENZOFLAVONE, Method: PREINCUBATION).
Take `CCC(=O)Nc1snc2ccccc12`: the mutagenic call under setting [1] is “inactive; negative”; the mutagenic call (Test System: AMES SALMONELLA TYPHIMURIUM, Strain/Indicator: TA100, Metabolic Activation: S-9, Method: STANDARD PLATE) is “inactive; negative”; the mutagenic call under setting [2] is “inactive; negative”; the mutagenic call (Test System: AMES SALMONELLA TYPHIMURIUM, Strain/Indicator: TA1537, Metabolic Activation: S-9, Method: STANDARD PLATE) was “inactive; negative”.
